Source: patent publication US7576093B2, “Method of treatment of bone-related disorders or conditions” (AstraZeneca AB, priority 2006, dated 2009)

What was measured:
GSK3β = target: T1, GSK3β (Mus musculus, UniProt Q9WV60); conditions: glucocorticoid-treated osteoblasts in culture, GSK3β inhibited; cited from earlier work
T1 construct: host or cells: osteoblasts in culture (endogenous protein)

Sprague Dawley rats [1] = assay: Trabecular bone mineral density of femur metaphysis by peripheral quantitative computed tomography after 14 days oral dosing; type: in vivo, rat; conditions: male Sprague Dawley rats, oral gavage 14 days, 3 μmol/kg twice daily or 30 μmol/kg once daily, every second or every fourth day; FIG. 5a-5c
Procedure: In a separate rat study, the effect of the compound 3-amino-6-[4-(4-methylpiperazin-1-yl)sulfonylphenyl]-N-pyridin-3-ylpyrazine-2-carboxamide on the bone mineral density (BMD) […]. The compound was formulated as a ultrapure solution in water (pH 3.5). The Male Sprague Dawley rats were dosed during 14 days by oral gavage. The study contained 4 dose groups with different dosing regimes and a vehicle control, namely 3 μmol/kg (twice daily) or 30 μmol/kg (once daily, once every second day or once every fourth day). Plasma samples were always taken 2 hrs after the oral dose was given in the morning. After 14 days, the rats were euthanized, and their right femurs were removed. The trabecular bone density of the femur metaphyses were measured utilizing peripheral quantitative computed Tomography method.

Han Wistar rats = assay: Four-week oral rat study, light microscopy of bone sections (bone formation); type: in vivo
Procedure: The compound 3-amino-6-[4-(4-methylpiperazin-1-yl)sulfonylphenyl]-N-pyridin-3-ylpyrazine-2-carboxamide was formulated as a solution in water. Male and female Han Wistar rats were dosed by oral gavage, at dosages of 10, 30 or 60 μmol/kg/day for four weeks and compared to vehicle controls. Complete necropsies were performed and the tissues preserved in 10% formalin. The femur, femorotibial joint, sternum and hind paws were decalcified, embedded in paraffin, sectioned at 5 μm thickness and stained with hematoxylin and eosin.

Sprague Dawley rats [2] = assay: Histopathology of bone in the 7-day rat study; type: in vivo; conditions: male Sprague Dawley rats, 30 μmol/kg/day orally for 7 days
[3] = tested on: Parathyroid hormone (PTH); assay: Intact PTH plasma levels in rats after 7 days oral dosing (ELISA); type: in vivo, rat; conditions: male Sprague Dawley rats, 30 μmol/kg/day orally for 7 days, 3 hours after last dose, vs vehicle
Procedure: (§1) In a separate rat study, the effect of the compound 3-amino-6-[4-(4-methylpiperazin-1-yl)sulfonylphenyl]-N-pyridin-3-ylpyrazine-2-carboxamide on osteocalcin levels, used as a marker for bone formation, was studied. Parathyroid hormone (PTH) and calcitonin levels were also analysed. The compound was formulated as a solution in water. Male Sprague Dawley rats were given 30 μmol/kg/day of the compound orally for 7 days and then compared to vehicle control rats. Blood samples were taken before the first drug administration at day 1, and 3 hours after the last dose at day 7. Osteocalcin plasma levels were measured using a commercial immunoassay (ELISA kit (catalogue # BT-490, Biomedical Technologies Inc. MA, USA)). Intact PTH levels were analyzed using a commercial ELISA kit (catalogue # 60-2700, Immutopics Inc. CA, USA). The calcitonin was measured in the following way, 200 μL plasma was precipitated with 1 mL acid ethanol, mixed vigorously and centrifuged for 15 min at 1500 g. The supernatant was decanted into a new tube and evaporated with a stream of nitrogen in a Turbo Vap. After reconstitution in assay buffer, calcitonin levels were analyzed using a commercial ELISA kit (catalogue # S-1197, Peninsula. Calif., USA).

osteocalcin = assay: Osteocalcin plasma levels in rats after 7 days oral dosing (ELISA); type: in vivo, rat; conditions: male Sprague Dawley rats, 30 μmol/kg/day orally for 7 days, 3 hours after last dose, vs vehicle
Procedure: as §1

calcitonin = assay: Calcitonin plasma levels in rats after 7 days oral dosing (ELISA); type: in vivo, rat; conditions: male Sprague Dawley rats, 30 μmol/kg/day orally for 7 days, 3 hours after last dose, vs vehicle
Procedure: as §1

[4] = rat, 60 μmol/kg for 4 weeks, vs vehicle-treated control

T1 sequence (Q9WV60 whole entry): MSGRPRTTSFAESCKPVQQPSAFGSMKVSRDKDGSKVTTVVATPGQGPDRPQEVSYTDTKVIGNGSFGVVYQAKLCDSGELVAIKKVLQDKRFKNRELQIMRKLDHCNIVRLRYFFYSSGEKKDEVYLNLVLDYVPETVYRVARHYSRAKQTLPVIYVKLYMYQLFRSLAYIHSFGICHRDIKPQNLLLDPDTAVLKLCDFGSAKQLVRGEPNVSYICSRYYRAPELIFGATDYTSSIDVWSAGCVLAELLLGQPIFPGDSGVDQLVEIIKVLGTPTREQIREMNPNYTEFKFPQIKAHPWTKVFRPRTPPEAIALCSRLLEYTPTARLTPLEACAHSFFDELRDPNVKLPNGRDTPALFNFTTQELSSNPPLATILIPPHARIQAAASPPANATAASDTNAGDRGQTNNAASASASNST

[Cl-].[Li+] [lithium chloride]
attenuated cell cycle and reduced c-Myc level in osteoblasts (GSK3β): returned to normal

Nc1ncc(-c2ccc(S(=O)(=O)N3CCNCC3)cc2)nc1C(=O)Nc1cccnc1 [3-amino-6-(4-piperazin-1-ylsulfonylphenyl)-N-pyridin-3-ylpyrazine-2-carboxamide]
bone mineral density (BMD) in the trabeculae of the right femur metaphysis (Sprague Dawley rats [1]): BMD increases

Nc1ncc(-c2ccc(S(N)(=O)=O)cc2)nc1C(=O)Nc1cccnc1 [3-amino-N-pyridin-3-yl-6-(4-sulfamoylphenyl)pyrazine-2-carboxamide]
bone mineral density (BMD) in the trabeculae of the right femur metaphysis (Sprague Dawley rats [1]): BMD increases

CN1CCN(S(=O)(=O)c2ccc(-c3cnc(N)c(C(=O)Nc4cccnc4)n3)cc2)CC1 [3-amino-6-[4-(4-methylpiperazin-1-yl)sulfonylphenyl]-N-pyridin-3-ylpyrazine-2-carboxamide]
bone formation (thickened trabeculae, thickened cortical bone, periosteal hyperostosis, increased number of osteoblasts) by light microscopy (Han Wistar rats; male and female Han Wistar rats, oral gavage 10, 30 or 60 μmol/kg/day for four weeks, all dose levels, vs vehicle): increased bone formation | formation of osteoid in femur (diaphysis), FIG. 1b (Han Wistar rats; [4]): marked increase in formation of osteoid | formation of osteoid in femur (diaphysis), FIG. 1b (figure legend) (Han Wistar rats; [4]): marked increase in formation of osteoid | bone formation, histopathologically (Sprague Dawley rats [2]): increased bone formation | PTH plasma levels [3]: significantly increased | Osteocalcin plasma levels (osteocalcin): significantly increased | bone mineral density (BMD) in the trabeculae of the right femur metaphysis (Sprague Dawley rats [1]): BMD increases | calcitonin plasma levels (calcitonin): significantly increased
